# Reference: patent US20250064064A1, “METHODS FOR DESIGNING AND […] VAPOR PHASE HYDROGEN PEROXIDE DECON[…]” (Amgen Inc., priority 2021, published 2025)
# Like-named read-outs stand apart in the source and are kept apart here.
# Tested on: viable spores of Geobacillus stearothermophilus
# Details: for growth results for biological indicators: dose 8 mL, seven BIs, seven-day incubation, no growth = 6-Log CFU reduction
# Method: In general, for each of the experiments, a respective amount of gas is circulated in a chamber interior containing Bls (in these experiments, seven Bls) for a respective amount of time. Then, after removing the gas from the chamber interior, the Bls are tested to determine whether the desired CFU reduction was achieved.
# One example method of determining whether the desired CFU reduction was achieved is by removing the Bls from the chamber interior after circulating a particular amount of gas for a particular amount of time, and incubating the Bls in a growth-promoting medium for seven days.
# In this example, the seven Bls of FIG. 3 may be in one or more locations in the chamber interior (e.g., with at least some in locations that are relatively difficult to decontaminate in the chamber interior). The Bls may be inoculated with viable spores of Geobacillus stearothermophilus, for example, or another suitable type of thermophile bacteria. The D-value of the Bls may be provided by the manufacturer of the Bls and may be, for example, 0.25 minutes, 0.5 minutes, 1 minutes, 1.5 minutes, 2 minutes, 2.5 minutes, or any other suitable D-value.
structure (smiles),measurement,setting,value
"OO [gas, hydrogen peroxide]",growth-no growth behavior with respect to time,10 mL amount of gas compared with 8 mL amount of gas,identical
same,growth results for biological indicators,gas circulated for 100 seconds,all but one BI (BI #4) achieving no growth
same,growth results for biological indicators,gas circulated for 300 seconds,no growth for all seven Bls
same,growth results for biological indicators,gas circulated for 500 seconds,no growth for all seven Bls
